How the values were obtained:
[1] = test system: wheat; assay: Test A pre-/postemergence herbicide test; assay type: in vivo, Triticum aestivum; conditions: Postemergence
Procedure, shortened: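 Approximately 10 days after treatment in the greenhouse, plants were compared with untreated controls and given a 0–100 visual injury rating. Applications: preemergence directed soil spray; postemergence on 2–10 cm plants at the one- to two-leaf stage.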

[2] = test system: wheat (winter wheat); assay: Test C pre-/postemergence herbicide test; assay type: in vivo, Triticum aestivum
Procedure, shortened: (§1)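 Plants grown and held in a greenhouse for 13 to 15 days post-spray, then rated 0–100 by visual comparison with controls. Pre treatments targeted seeds in loam and sand; post treatments targeted 1- to 4-leaf plants in peat-based potting medium.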

[3] = test system: galium; assay: Test C pre-/postemergence herbicide test; assay type: in vivo, Galium aparine; conditions: Preemergence
Procedure, shortened: as §1

[4] = test system: sedge, umbrella; assay: Test B flooded paddy test; assay type: in vivo, Cyperus difformis; conditions: 500 g ai/ha, Flood; scale of 0 to 100 where 0 is no effect and 100 is complete control
Procedure, shortened: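 Visual ratings from 0, meaning no effect, up to 100, meaning complete control, were made by comparison with untreated controls 13 to 15 days after treatment. Test compounds went straight into floodwater standing 3 cm over the soil of pots holding 2-leaf seedlings.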

[5] = test system: blackgrass; assay: Test C pre-/postemergence herbicide test; assay type: in vivo, Alopecurus myosuroides
Procedure, shortened: as §1

[6] = test system: waterhemp; assay: Test C pre-/postemergence herbicide test; assay type: in vivo, Amaranthus rudis
Procedure, shortened: as §1

[7] = test system: crabgrass, large; assay: Test C pre-/postemergence herbicide test; assay type: in vivo, Digitaria sanguinalis
Procedure, shortened: as §1

[8] = test system: lambsquarters; assay: Test C pre-/postemergence herbicide test; assay type: in vivo, Chenopodium album
Procedure, shortened: as §1

[9] = test system: pigweed; assay: Test C pre-/postemergence herbicide test; assay type: in vivo, Amaranthus retroflexus
Procedure, shortened: as §1

[10] = test system: morningglory; assay: Test C pre-/postemergence herbicide test; assay type: in vivo, Ipomoea coccinea
Procedure, shortened: as §1

[11] = test system: johnsongrass; assay: Test C pre-/postemergence herbicide test; assay type: in vivo, Sorghum halepense
Procedure, shortened: as §1

[12] = Postemergence, 31 g ai/ha, scale 0 to 100 (0 no effect, 100 complete control)
[13] = Postemergence, 62 g ai/ha, scale 0 (no effect) to 100 (complete control)
[14] = Postemergence, 125 g ai/ha, scale 0 to 100 (0 no effect, 100 complete control)
[15] = Postemergence, 250 g ai/ha, scale 0 to 100 (0 no effect, 100 complete control)
[16] = Preemergence, 62 g ai/ha, scale 0 to 100 (0 no effect, 100 complete control)
[17] = Preemergence, 125 g ai/ha, scale 0 to 100
[18] = Preemergence, 31 g ai/ha, scale 0 to 100, 0 is no effect and 100 is complete control

For `O=C1NCC(c2cccc(C(F)(F)F)c2)C1C(=O)Nc1ccc(F)c(F)c1F` (stereo not drawn) [Compound 315], the “Plant response rating, Wheat” value ([1]; 125 g ai/ha, visual rating on 0 to 100 scale (0 no effect, 100 complete control), approx. 10 days) was 60, the “Plant response rating, Wheat” value ([1]; 500 g ai/ha, 0 to 100 scale (0 no effect, 100 complete control)) was 70 and the “Plant response rating, Wheat” value [2, 12] was 0. The “Plant response rating, Wheat” value [2, 13] was 0, the “Plant response rating, Wheat” value [2, 14] was 0 and the “Plant response rating, Wheat” value [2, 15] was 5. The “Wheat plant response rating” value [2, 16] was 50, the “Plant response rating, Wheat” value [2, 17] was 90 and the “Plant response rating (scale of 0 to 100), Wheat” value ([2]; Preemergence, 250 g ai/ha) was 90. The “Galium plant response rating” value ([3]; 31 g ai/ha, scale 0 to 100, 0 is no effect and 100 is complete control) was 90, the “Galium plant response rating” value ([3]; 62 g ai/ha, scale 0 to 100 (0 no effect, 100 complete control)) was 80 and the “Plant response rating, Galium” value ([3]; 125 g ai/ha, scale 0 to 100) was 80. For the same compound, the “Plant response rating (scale of 0 to 100), Galium” value ([3]; 250 g ai/ha) was 90, the “Plant response rating, Sedge, Umbrella” value [4] was 0 and the “Plant response rating, Blackgrass” value [5, 12] was 0. For the same compound, the “Plant response rating, Blackgrass” value [5, 13] was 0, the “Plant response rating, Blackgrass” value [5, 14] was 30 and the “Plant response rating, Blackgrass” value [5, 15] was 25. For the same compound, the “Blackgrass plant response rating” value [5, 18] was 60, the “Blackgrass plant response rating” value [5, 16] was 60 and the “Plant response rating, Blackgrass” value [5, 17] was 65. For the same compound, the “Plant response rating (scale of 0 to 100), Blackgrass” value ([5]; Preemergence, 250 g ai/ha) was 85, the “Plant response rating, Waterhemp” value [6, 12] was 50 and the “Plant response rating, Waterhemp” value [6, 13] was 60. The “Plant response rating, Waterhemp” value [6, 14] was 60, the “Plant response rating, Waterhemp” value [6, 15] was 65 and the “Waterhemp plant response rating” value [6, 16] was 75. For the same compound, the “Plant response rating, Waterhemp” value [6, 17] was 85, the “Plant response rating (scale of 0 to 100), Waterhemp” value ([6]; Preemergence, 250 g ai/ha) was 85 and the “Plant response rating, Crabgrass, Large” value [7, 12] was 55. The “Plant response rating, Crabgrass, Large” value [7, 13] was 65, the “Plant response rating, Crabgrass, Large” value [7, 14] was 70 and the “Plant response rating, Crabgrass, Large” value [7, 15] was 75. The “Crabgrass, Large plant response rating” value [7, 18] was 90, the “Crabgrass, Large plant response rating” value [7, 16] was 95 and the “Plant response rating, Crabgrass, Large” value [7, 17] was 95. For the same compound, the “Plant response rating (scale of 0 to 100), Crabgrass, Large” value ([7]; Preemergence, 250 g ai/ha) was 98, the “Plant response rating, Lambsquarters” value [8, 12] was 60 and the “Plant response rating, Lambsquarters” value [8, 13] was 60. The “Plant response rating, Lambsquarters” value [8, 14] was 65, the “Plant response rating, Lambsquarters” value [8, 15] was 80 and the “Lambsquarters plant response rating” value [8, 18] was 40. The “Lambsquarters plant response rating” value [8, 16] was 40, the “Plant response rating, Lambsquarters” value [8, 17] was 70 and the “Plant response rating (scale of 0 to 100), Lambsquarters” value ([8]; Preemergence, 250 g ai/ha) was 80. For the same compound, the “Plant response rating, Pigweed” value [9, 12] was 25, the “Plant response rating, Pigweed” value [9, 13] was 65 and the “Plant response rating, Pigweed” value [9, 14] was 65. For the same compound, the “Plant response rating, Pigweed” value [9, 15] was 80, the “Pigweed plant response rating” value [9, 18] was 45 and the “Pigweed plant response rating” value [9, 16] was 60. The “Plant response rating, Pigweed” value [9, 17] was 75, the “Plant response rating (scale of 0 to 100), Pigweed” value ([9]; Preemergence, 250 g ai/ha) was 85 and the “Plant response rating, Morningglory” value [10, 12] was 25. For the same compound, the “Plant response rating, Morningglory” value [10, 13] was 65, the “Plant response rating, Morningglory” value [10, 14] was 35 and the “Plant response rating, Morningglory” value [10, 15] was 10. The “Morningglory plant response rating” value [10, 18] was 20, the “Morningglory plant response rating” value [10, 16] was 25 and the “Plant response rating, Morningglory” value [10, 17] was 35. For the same compound, the “Plant response rating (scale of 0 to 100), Morningglory” value ([10]; Preemergence, 250 g ai/ha) was 45, the “Plant response rating, Johnsongrass” value [11, 12] was 0 and the “Plant response rating, Johnsongrass” value [11, 13] was 0. For the same compound, the “Plant response rating, Johnsongrass” value [11, 14] was 0, the “Plant response rating, Johnsongrass” value [11, 15] was 35 and the “Johnsongrass plant response rating” value [11, 18] was 75. For the same compound, the “Johnsongrass plant response rating” value [11, 16] was 85, the “Plant response rating, Johnsongrass” value [11, 17] was 85 and the “Plant response rating (scale of 0 to 100), Johnsongrass” value ([11]; Preemergence, 250 g ai/ha) was 90.

Source: patent publication US10294202B2, “Pyrrolidinones as herbicides” (FMC Corporation, priority 2013, dated 2019)
